Measured values reported in patent US6933392B2, “Hydroxy substituted fused naphthyl-azoles and fused indeno-azoles and their use for the treatment of glaucoma” (Alcon, Inc., priority 2001, dated 2005).
Structures can show the parent of a compound that is named as a salt. Where two headings read alike, the source gives them in different places.

What was measured:
[1] = biological target: brain 5-HT2 receptors (Rattus norvegicus, UniProt P14842); test: 5-HT2 receptor binding assay ([125I]DOI competition); conditions: competition for [125I]DOI binding, rat or human cerebral cortex homogenates
Protocol: 5-HT2 Receptor Binding Assay
The assay mixture is incubated for 1 hour at 23° C. in polypropylene tubes and the assays terminated by rapid vacuum filtration over Whatman GF/B glass fiber filters previously soaked in 0.3% polyethyleneimine using ice-cold buffer. Test compounds (at different concentrations) are substituted for methiothepin. Filter-bound radioactivity is determined by scintillation spectrometry on a beta counter. The data are analyzed using a non-linear, iterative curve-fitting computer program [Trends Pharmacol. Sci., 16, 413 (1995)] to determine the compound affinity parameter. The concentration of the compound needed to inhibit the [^125I]DOI binding by 50% of the maximum is termed the IC50 or Ki value.

[2] = biological target: T1, 5-HT2 receptors in A7r5 rat vascular smooth muscle cells (Rattus norvegicus, UniProt P14842); test: 5-HT2 functional assay: [Ca2+]i mobilization (FLIPR); assay type: cell-based; conditions: for Emax: read-out: Efficacy (Emax, %)
T1 construct: endogenous in cells; host or cells: A7r5 rat vascular smooth muscle cells
Protocol: 5-HT2 Functional Assay: [Ca^2+]i Mobilization
The receptor-mediated mobilization on intracellular calcium ([Ca^2+]i) was studied using the Fluorescence Imaging Plate Reader (FLIPR) instrument. Rat vascular smooth muscle cells, A7r5, were grown in a normal media of DMEM/10% FBS and 10 μg/mL gentamycin. Confluent cell monolayers were trypsinized, pelleted, and re-suspended in normal media. Cells were seeded in a 50 μL volume at a density of 20,000 cells/well in a black wall, 96-well tissue culture plate and grown for 2 days.
On the day of the experiment, one vial of FLIPR Calcium Assay Kit dye was re-suspended in 50 mL of a FLIPR buffer consisting of Hank's Balanced Salt Solution (HBSS), 20 mM HEPES, and 2.5 mM probenecid, pH 7.4. Cells were loaded with the calcium-sensitive dye by addition of an equal volume (50 μL) to each well of the 96-well plate and incubated with dye for 1 h at 23° C.
Compounds were diluted 1:50 in 20% DMSO/20% ethanol. For “hit” screening, compounds were further diluted 1:10 in FLIPR buffer and tested at a final concentration of 10 μM.
The compound plate and cell plate were placed in the FLIPR instrument. At the beginning of an experimental run, a signal test was performed to check the basal fluorescence signal from the dye-loaded cells and the uniformity of the signal across the plate. The basal fluorescence was adjusted between 8000-12000 counts by modifying the exposure time, the camera F-stop, or the laser power. Instrument settings for a typical assay were the following: laser power 0.3-0.6 W, camera F-stop F/2, and exposure time 0.4 sec. An aliquot (25 μL) of the test compound was added to the existing 100 μL dye-loaded cells at a dispensing speed of 50 μL/sec. Fluorescence data were collected in real-time at 1.0 sec intervals for the first 60 secs and at 6.0 sec intervals for an additional 120 secs.

[3] = A7r5 cells, FLIPR, percentage of maximum 5-HT-induced response
[4] = A7r5 cells, FLIPR, read-out: EC50, nM (5-HT2 functional, [Ca2+]i mobilization)

T1 sequence (P14842 whole entry): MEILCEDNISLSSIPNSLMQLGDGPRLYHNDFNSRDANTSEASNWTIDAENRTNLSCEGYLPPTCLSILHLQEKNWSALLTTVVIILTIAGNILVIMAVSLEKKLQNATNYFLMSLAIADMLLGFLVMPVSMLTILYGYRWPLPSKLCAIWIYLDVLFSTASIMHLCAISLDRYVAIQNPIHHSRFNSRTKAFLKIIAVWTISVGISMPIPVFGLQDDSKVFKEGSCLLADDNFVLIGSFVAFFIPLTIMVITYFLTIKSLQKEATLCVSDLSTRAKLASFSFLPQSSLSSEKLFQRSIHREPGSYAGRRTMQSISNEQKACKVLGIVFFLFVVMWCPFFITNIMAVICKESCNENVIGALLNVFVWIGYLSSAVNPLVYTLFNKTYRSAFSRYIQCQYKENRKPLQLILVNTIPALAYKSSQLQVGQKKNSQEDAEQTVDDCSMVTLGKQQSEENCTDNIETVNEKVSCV
Chain of brain 5-HT2 receptors (P14842 whole entry): as above

In the case of `COc1cc(CC(C)N)c(OC)cc1I` (stereo not shown) [DOI, reference compound], the IC50 [1] is reported as 0.33 nM, the “Efficacy (Emax, %)” value [2, 3] is reported as 31% and the EC50 [2, 4] is reported as 30.2 nM.

`CC(N)Cn1ncc2c1-c1cc(O)ccc1CC2` (stereo not shown) [Example 2, 1-(2-Aminopropyl)-4,5-dihydro-1H-benzo[g]indazol-8-ol Dihydrochloride] was tested, and the Emax [2, 3] was 46% and the EC50 [2, 4] was 103 nM.

`CC(N)Cn1ncc2ccc3cc(O)ccc3c21` (stereo not shown) [Example 4, 1-(2-Aminopropyl)-2H-benzo[g]indazol-7-ol] gave an EC50 [2] of 211 nM and an Emax [2, 3] of 79%.

For `CC(N)Cn1ncc2c1-c1ccc(O)cc1C2` (stereo not shown) [Example 5, 1-(2-Aminopropyl)-1,4-dihydro-indeno[1,2-c]pyrazol-6-ol], the Emax [2, 3] was 64% and the EC50 [2, 4] was 328 nM.

For `NCCc1c[nH]c2ccc(O)cc12` [Example 5-HT, 5-Hydroxytryptamine, reference compound], the Emax [2, 3] was 107%.
